In US20080075660A1, “Near infrared-fluorescence using phospholipid ether analog dyes in endoscopic applications” (Cellectar, LLC, priority 2006, published 2008):

Key:
[1] = tested on: malignant tumors; details: radiolabeled versions (such as I-124), known from earlier studies; cited from earlier work
[2] = tested on: colon tumors; experiment: microPET/microCT imaging of I-124-NM404 in colon tumor model in rats (PIRC rat); format: in vivo
Text: FIG. 1 provides a 2D microCT projection of an excised PIRC rat colon filled with 2% barium (A) and ^124I-NM404 microPET image in a PIRC Rat (B) and the fused microPET/microCT image (C). Fiducial marker (M), Tumor (arrow).
Multiple tumors have been detected protruding into the colon lumen.

accumulation in excised colon on microPET image ([2]; PIRC rat colon with multiple tumors, microPET): one area of accumulation only | accumulation in benign polyps ([2]; all other colon tumors, which turned out to be benign polyps): did not show accumulation
Compound: C[N+](C)(C)CCOP(=O)([O-])OCCCCCCCCCCCCCCCCCCc1ccc(I)cc1 [NM404, 18-(p-Iodophenyl)octadecyl phosphocholine]
accumulation in malignant versus benign tumors [1]: accumulate in malignant tumors, but not in benign tumors such as polyps | accumulation in colon tumors, fused microCT/microPET image ([2]; adenocarcinoma versus other colon tumors): seen only in a tumor that later proved to be an adenocarcinoma
